The values that follow come from the RepoRT retention time repository (doi:10.1007/s11306-014-0727-x).

This data set is described as follows: HILIC, Merck SeQuant ZIC-pHILIC, 100 × 2.1 mm, 5 µm, 25 °C; gradient (min/%B) 0/3 1/3 12/30 14.5/90 17/90 18.5/3 24/3. The note with it: stereoisomer not certain.

The molecule `Cl.N[C@@H](CS)C(=O)O.O` [L-cysteine hydrochloride hydrate] gave an LC retention time of 11.9 min.

The molecule `CC(C)(C)[C@H](N)C(=O)O` [L-tert-Leucine] returned an LC retention time of 10 min.

`C[C@@H](O)[C@H](N)C(=O)O` [L-threonine]: the LC retention time was 12.5 min.

In turn, `N[C@@H](Cc1ccc(O)cc1)C(=O)O` [L-tyrosine] came in with an LC retention time of 11.2 min.

`CC(O)C(=O)O` (stereo not drawn) [Lactic acid] returned an LC retention time of 7.45 min.

`O=C(O)C(O)C(O)C(OC1OC(CO)C(O)C(O)C1O)C(O)CO` (stereo not drawn) [Lactobionic acid]: the LC retention time was determined as 14.3 min.

As to `O=c1c(O)c(-c2ccc(O)cc2O)oc2cc(O)cc(O)c12` [Morin], the LC retention time was determined as 6.55 min.

Take `C1COCCN1` [Morpholine]: the LC retention time turned out to be 10.4 min.

As for `CC1OC(OC2C(Oc3cc(O)c4c(c3)OC(c3ccc(O)cc3)CC4=O)OC(CO)C(O)C2O)C(O)C(O)C1O` (stereo not drawn) [Naringin CHR], the LC retention time was 7.51 min.

Molecule `NC(=O)c1ccc[n+](C2OC(COP(=O)(O)OP(=O)([O-])OCC3OC(n4cnc5c(N)ncnc54)C(O)C3O)C(O)C2O)c1` (stereo not drawn) [Nicotinamide adenine dinucleotide] gave an LC retention time of 14.1 min.

`O=C(O)c1cccnc1` [Nicotinic acid] gave an LC retention time of 2.35 min.

In the case of `COC(C)C(N)C(=O)O` (stereo not drawn) [O-methyl threonine], the LC retention time is 10.4 min.

Take `C[C@@H](OP(=O)(O)O)[C@H](N)C(=O)O` [O-phospho-L-threonine]: the LC retention time amounted to 14.5 min.

As for `Nc1ccc(C(=O)O)cc1` [P-Aminobenzoic acid], the LC retention time was 2.26 min.

In the case of `O=C(CCc1ccc(O)cc1)c1c(O)cc(O)cc1OC1OC(CO)C(O)C(O)C1O` (stereo not drawn) [Phloridzin], the LC retention time was determined as 7.09 min.

Regarding `Cc1ncc(COP(=O)(O)O)c(C=O)c1O` [Pyridoxal-5'-phosphate], the LC retention time worked out at 10.3 min.

`Cc1ncc(CO)c(CO)c1O` [Pyridoxine] registered an LC retention time of 9.21 min.

For the molecule `O=C(O)c1ccc2ccccc2n1` [Quinaldic acid], the LC retention time turned out to be 1.9 min.

With `Cc1cc2nc3c(=O)[nH]c(=O)nc-3n(CC(O)C(O)C(O)CO)c2cc1C` (stereo not drawn) [Riboflavin], the LC retention time stood at 7.85 min.

For `CC1OC(OCC2OC(Oc3c(-c4ccc(O)c(O)c4)oc4cc(O)cc(O)c4c3=O)C(O)C(O)C2O)C(O)C(O)C1O` (stereo not drawn) [Rutin Trihydrate], the LC retention time came out at 9.3 min.

As to `NC(CO)C(=O)O` [Serine L-], the LC retention time was 13.2 min.

In turn, `NCCS(=O)(=O)O` [Taurine] gave an LC retention time of 12.6 min.

Molecule `Cn1c(=O)c2[nH]cnc2n(C)c1=O` [Theophylline] displayed an LC retention time of 2.28 min.

`Cc1cn(C2CC(O)C(COP(=O)(O)O)O2)c(=O)[nH]c1=O` (stereo not drawn) [Thymidine monophosphate] showed an LC retention time of 11.9 min.

The molecule `Cc1cn(C2CC(O)C(CO)O2)c(=O)[nH]c1=O` (stereo not drawn) [Thymidine] came in with an LC retention time of 4.41 min.

Take `Cc1c[nH]c(=O)[nH]c1=O` [Thymine]: the LC retention time was determined as 3.51 min.

The molecule `O=C(O)[C@@H]1C[C@@H](O)CN1` [Trans-4-hydroxy-L-proline] returned an LC retention time of 12.1 min.

In turn, `NCCc1c[nH]c2ccccc12` [Tryptamine] had an LC retention time of 9.86 min.

`NCCc1ccc(O)cc1` [Tyramine]: the LC retention time worked out at 10.5 min.

Molecule `NC(N)=O` [Urea] came in with an LC retention time of 7.16 min.

The molecule `O=c1[nH]c(=O)c2[nH]cnc2[nH]1` [Xanthine] returned an LC retention time of 8.29 min.

With `O=c1c2ccccc2oc2ccccc12` [Xanthone], the LC retention time came to 1.22 min.

Consider `Nc1ccc(C(=O)NCC(=O)O)cc1` [p-aminohippuric acid], for which the LC retention time turned out to be 5.67 min.
